Source: US10010504B2, “Compositions and methods including celecoxib and plumbagin relating to treatment of cancer” (The Penn State Research Foundation, priority 2013, dated 2018)

Test system: UACC 903 melanoma cells
Experiment: Thermal stability in DMSO at 60° C., efficacy by MTS assay
Conditions: DMSO solution

SMILES: CC1=CC(=O)c2c(O)cccc2C1=O [plumbagin, 5-hydroxy-2-methyl-1,4-napthoquinone]
- effect of prolonged exposure to 60° C. on compound activity: did not affect compound activity

SMILES: Cc1ccc(-c2cc(C(F)(F)F)nn2-c2ccc(S(N)(=O)=O)cc2)cc1 [celecoxib, 4-[5-(4-Methylphenyl)-3-(trifluoromethyl)-1H-pyrazol-1-yl]benzenesulfonamide]
- heating time acceptable without decreasing efficacy: ≤ 20 min
